pKd: −log10 of the molar value. “Also recorded” adds a separate entry of the source.

This is an account of results in patent US7129346B2, “Crown ether derivatives” (Molecular Probes, Inc., priority 2000, dated 2006).

Assay [1] is described as follows: Indicator fluorescence response titration, dissociation constant for Na+. The class given is binding. Here is the method: (§1) The fluorescence response of a selected compound of the invention as a function of ion concentration was determined by dissolving a sample of the pure compound in 3 mL of each of two solutions: solution 1 (“high”) consists of 200 mM NaCl (or other appropriate ion) and 10 mM MOPS buffer at pH 7.05; solution 2 (“zero”) consists of 10 mM MOPS buffer at pH 7.05 in deionized water. […]. A least-squares fit was used to arrive at the concentration where the selected indicator was maximally sensitive to changes in Na^+ concentration. This corresponded to the dissociation constant of that indicator for Na^+ and was expressed as a concentration.
(§2) This methodology was repeated for K+, Li+ and Tb+ to obtain emission spectra and to calculate the Kd values. See, Table 2 and FIG. 4
For visible wavelength probes such as Compound 22 (Example 17), Compound 27 (Example 22) and Compound 86 (Example 79) the indicator's fluorescence emission was typically scanned from 450–650 nm while the sample was excited at the absorption maximum wavelength. For UV-excitable ratiometric probes such as Compound 51 (Example 46), the excitation wavelengths of the dye in solution 2 were scanned from 260 to 450 nm while monitoring constant fluorescence emission at 510 nm (as in FIG. 1). […]

Assay [2] is described as follows: Indicator fluorescence response titration, dissociation constant for K+. It is filed as binding. Here is the method:
The fluorescence response of a selected compound of the invention as a function of ion concentration was determined by dissolving a sample of the pure compound in 3 mL of each of two solutions: solution 1 (“high”) consists of 200 mM NaCl (or other appropriate ion) and 10 mM MOPS buffer at pH 7.05; solution 2 (“zero”) consists of 10 mM MOPS buffer at pH 7.05 in deionized water. A series of curves are generated by cross dilution between the two solutions to arrive at intermediate concentrations of Na+, K+, Li+ and Tb+. The emission of a selected indicator in solution 2 was scanned and then was repeated to cover the entire range from zero to 200 mM Na^+. For example, the fluorescence emission of the chosen indicator was scanned while the sample was excited at that indicator's absorption maximum wavelength, and then 1/100 of the sample was removed and replaced with 1/100 of solution 1 to arrive at a Na^+ concentration of 2 mM. This dilution was repeated to cover the entire range from zero to […] Na^+ and the resulting emission intensities were plotted versus the ion concentrations. A least-squares fit was used to arrive at the concentration where the selected indicator was maximally sensitive to changes in Na^+ concentration. This corresponded to the dissociation constant of that indicator for Na^+ and was expressed as a concentration.
as §2
(§3) For visible wavelength probes such as Compound 22 (Example 17), Compound 27 (Example 22) and Compound 86 (Example 79) the indicator's fluorescence emission was typically scanned from 450–650 nm while the sample was excited at the absorption maximum wavelength. For UV-excitable ratiometric probes such as Compound 51 (Example 46), the excitation wavelengths of the dye in solution 2 were scanned from 260 to 450 nm while monitoring constant fluorescence emission at 510 nm (as in FIG. 1).

The nature of assay [3]: Indicator fluorescence response titration, dissociation constant for Zn2+. The class given is binding. The conditions noted are these: Table 1, Formula (I) compounds; approximate values; read-out: Dissociation Constant (target ion) Kd (Zn^2+). On the procedure: as §1
A short description of assay [4]: Indicator fluorescence response titration, dissociation constant for Ca2+. It is filed as binding. The following applies: Table 1, Formula (I) compounds, read-out: Dissociation Constant (target ion) Kd (Ca^2+). On the procedure: as §1
A further assay relates to Jurkat cells. Briefly: Calibration of sodium indicator fluorescence response in cells (flow cytometry). It is filed as cell-based. The following applies: 2 μM gramicidin, extracellular Na+ 0-145 mM, excitation 488 nm; for Intracellular fluorescence response to increasing intracellular Na^+ concentration: Jurkat cells, 5 μM Compound 25 or 10 μM Compound 87. Here is the method: Jurkat cells were loaded with a 5 μM solution of either Compound 25 (Example 20), or commercially available SODIUM GREEN tetraacetate indicator (Molecular Probes, Inc., Eugene, Oreg.) and 10 μM for Compound 87 (Example 80) for 30 minutes at 37° C. The use of PLURONIC dispersing agent helped dissolve the selected indicator. Intracellular sodium concentrations were then established by varying the sodium concentration of the extracellular buffer in the presence of 2 μM gramicidin (a sodium-pore forming antibiotic). The extracellular buffer was set at 0 mM, 10 mM, 20 mM, 50 mM, 100 mM, and 145 mM, respectively. Intracellular fluorescence response of the selected indicators was measured using a FACSCAN flow cytometer and associated software, with fluorescence excitation at 488 nm.
A general note: A flow cytometer gives signals particle by particle.

Assay [5] in a line: Indicator fluorescence response titration, dissociation constant for Rb+. The conditions noted are these: Table 2, Formula (II) compounds, in solution. It is filed as binding. On the procedure:
as §1, §2, §3

Assay [6] is described as follows: Indicator fluorescence response titration, dissociation constant for Li+. It is filed as binding. The following applies: Table 2, Formula (II) compounds, in solution. On the procedure: as §1, §2, §3
Setting [7] is: Table 1, Formula (I) compounds, approximate values, read-out: Dissociation Constant (target ion) Kd (Na^+).
The mark [8] stands for this setting: Table 2, Formula (II) compounds, in solution.
The mark [9] stands for this setting: Table 2, Formula (II) compounds, in solution, 10 mM MOPS pH 7.05, read-out: Dissociation constant Kd (Na^+).

The term pKd denotes the negative decadic logarithm of the Kd, by convention in mol/L. For the compound `COC(=O)CN1CCOCCN(CC(=O)OC)c2cc3oc(-c4ncc(C(=O)O)o4)cc3cc2OCCOc2cc(C)ccc21`, the pKd in assay [1] (setting [7]) was approximately 1.28.

A word on the Kd: it is the constant that tells how readily two partners part at equilibrium. Regarding `COC(=O)CN1CCOCCN(CC(=O)OC)c2ccc(-c3cc4ccc(C(=O)OC)cc4[nH]3)cc2OCCOc2cc(C)ccc21`, the dissociation constant (Kd) in assay [2] (Table 1, Formula (I) compounds, approximate value printed in nM, read-out: Dissociation Constant (target ion) Kd (K^+)) is approximately 115 nM. For the same compound, in assay [1] (setting [7]), the negative logarithm of the Kd (pKd) was approximately 1.52.

For `COC(=O)CN1CCOCCN(CC(=O)OC)c2cc(OCC(=O)O)c(-c3cc4ccc(C(=O)OC)cc4[nH]3)cc2OCCOc2cc(C)ccc21`, the pKd in assay [1] (setting [7]) was approximately 1.28.

For `COC(=O)CN1CCOCCN(CC(=O)OC)c2ccc(-c3c4cc(F)c(=O)cc-4oc4cc(O)c(F)cc34)cc2OCCOc2cc(C)ccc21`, the pKd in assay [1] (setting [7]) was approximately 1.22.

In the case of `COC(=O)CN1CCOCCN(CC(=O)OC)c2ccc(-c3c4ccc(=[N+](C)C)cc-4oc4cc(N(C)C)ccc34)cc2OCCOc2cc(C)ccc21`, in assay [1] (setting [7]), the negative-log Kd (pKd) was approximately 1.02.

Regarding `COC(=O)CN1CCOCCN(CC(=O)OC)c2cc(OCC(=O)[O-])c(-c3c4ccc(=[N+](C)C)cc-4oc4cc(N(C)C)ccc34)cc2OCCOc2cc(C)ccc21`, the pKd in assay [1] (setting [7]) was approximately 1.04.

As to `Cc1ccc2c(c1)OCCOc1cc(-c3c4ccc(=[N+](C)C)cc-4oc4cc(N(C)C)ccc34)c(OCC(=O)O)cc1N(CC(=O)O)CCOCCN2CC(=O)O`, the negative-log Kd (pKd) in assay [1] (setting [7]) was approximately 1.15; in assay [3], approximately 7.00.

For `COC(=O)CN1CCOCCN(CC(=O)OC)c2cc(OCC(=O)NC(CC(=O)O)C(=O)[O-])c(-c3c4ccc(=[N+](C)C)cc-4oc4cc(N(C)C)ccc34)cc2OCCOc2cc(C)ccc21` (centres unmarked), the pKd in assay [1] (setting [7]) was approximately 1.07.

Turning to `CCCCCCCCCCCCCCCCCCNC(=O)COc1cc2c(cc1-c1c3ccc(=[N+](C)C)cc-3oc3cc(N(C)C)ccc13)OCCOc1cc(C)ccc1N(CC(=O)OC)CCOCCN2CC(=O)OC`, in assay [1] (setting [7]), the negative logarithm of the Kd (pKd) is approximately 1.85.

With `Cc1ccc2c(c1)OCCOc1cc(-c3c4ccc(=[N+](C)C)cc-4oc4cc(N(C)C)ccc34)ccc1N(CC(=O)O)CCOCCN2CC(=O)[O-]`, the results for the pKd in assay [4] (approximate values), in assay [1] (setting [7]) and in assay [3] were approximately 5.40, approximately 1.42 and approximately 6.52, respectively.

For `Cc1ccc2c(c1)OCCOc1cc(C3=c4cc5c6c(c4Oc4c3cc3c7c4CCCN7CCC3)CCC[N+]=6CCC5)ccc1N(CC(=O)O)CCOCCN2CC(=O)[O-]`, the negative-log Kd (pKd) in assay [4] (approximate values) is approximately 5.15; in assay [3], approximately 5.10.

`Cc1ccc2c(c1)OCCOc1cc(-c3c4cc(F)c(=O)cc-4oc4cc(O)c(F)cc34)ccc1N(CC(=O)O)CCOCCN2CC(=O)O`: the negative-log Kd (pKd) in assay [4] (approximate values) was approximately 5.30; in assay [1] (setting [7]), approximately 1.44; in assay [3], approximately 6.52.

`Cc1ccc2c(c1)OCCOc1cc(-c3c4cc(F)c(=O)cc-4oc4cc(O)c(F)cc34)ccc1N(CC(N)=O)CCOCCN2CC(N)=O`: the pKd in assay [3] is approximately 3.22.

Take `Cc1ccc2c(c1)OCCOc1cc(-c3c4ccc(=[N+](C)C)cc-4oc4cc(N(C)C)ccc34)ccc1N(CC(N)=O)CCOCCN2CC(N)=O`: the pKd in assay [3] is approximately 3.19.

On to `Cc1ccc2c(c1)OCCOc1cc3cc(-c4ncc(C(=O)O)o4)oc3cc1N(CC(=O)O)CCOCCN2CC(=O)O`, for which the pKd in assay [4] (approximate value) was approximately 6.40.

In the case of `COC(=O)OCOC(=O)CN1CCOCCN(CC(=O)OCOC(C)=O)c2ccc(C)cc2OCCOc2cc(C3=C4C=C(F)C(O)C=C4Oc4cc(OCOC(C)=O)c(F)cc43)ccc21` (centres unmarked) [Compound 25], in the assay on Jurkat cells (Jurkat cells loaded with 5 μM for 30 minutes at 37° C., FIG. 3), the “Intracellular fluorescence intensity compared with SODIUM GREEN indicator” value is given as “stronger fluorescence intensity than SODIUM GREEN sodium indicator; also recorded: substantially brighter intracellular fluorescence intensity than the SODIUM GREEN indicator”. Besides, the “Intracellular fluorescence response to increasing intracellular Na^+ concentration” value in the assay with Jurkat cells is on record as “consistent increase in fluorescence intensity”.

For `COC(=O)CN1CCOCCOCCOCCOc2cc(-c3c4cc(F)c(=O)cc-4oc4cc(O)c(F)cc34)ccc21` [Compound 86], in assay [2] (setting [8]), the “Response to complexation (R = F/F0), R (K^+)” value was determined as 6.9. Also, in assay [5], the “Response to complexation (R = F/F0), R (Rb^+)” value was determined as 2.7. For the same compound, the “Response to complexation (R = F/F0), R (Na^+)” value (“Response … (Na^+)” for short) in assay [1] (setting [8]) is 28.5. Moreover, in assay [1] (setting [9]), the pKd is 1.09. In assay [6], the “Response to complexation (R = F/F0), R (Li^+)” value is listed as 6.8.

Take `COC(=O)CN1CCOCCOCCOCCOc2cc(-c3c4cc(F)c(=O)cc-4oc4cc(OCOC(C)=O)c(F)cc34)ccc21` [Compound 87]: the “Intracellular fluorescence response to increasing intracellular Na^+ concentration” value in the assay on Jurkat cells is listed as “increased fluorescent signal with increasing concentrations of sodium ions”.

As for `COC(=O)CN1CCOCCOCCOCCOc2cc(-c3cc4ccc(C(=O)OC)cc4[nH]3)ccc21` [Compound 93], in assay [2] (Table 2, Formula (II) compounds, in solution, 10 mM MOPS pH 7.05), the “Dissociation constant Kd (K^+)” value was “Kd (K^+) = no sensitivity”. For the same compound, the “Response … (Na^+)” value in assay [1] (setting [8]) was determined as 25. Besides, in assay [1] (setting [9]), the pKd was 1.05.

Regarding `COCCN1CCOCCOCCOCCOc2cc(-c3c4cc(F)c(=O)cc-4oc4cc(O)c(F)cc34)ccc21` [Compound 115], the “Response to complexation (R = F/F0), R (K^+)” value in assay [2] (setting [8]) was found to be 2.8. Besides, in assay [1] (setting [8]), the “Response … (Na^+)” value was 5.9. Moreover, the negative logarithm of the Kd (pKd) in assay [1] (setting [9]) was 1.10.

Consider `COCCN1CCOCCOCCOCCOc2cc(-c3cc4ccc(C(=O)OC)cc4[nH]3)ccc21` [Compound 120], for which the “Response … (Na^+)” value in assay [1] (setting [8]) was 2. Besides, the pKd in assay [1] (setting [9]) was 1.05.

Consider `COC(=O)c1ccc2cc(-c3ccc4c(c3)OCCOCCOCCOCCN4CCN(C)C)[nH]c2c1` [Compound 126], for which, in assay [1] (setting [8]), the “Response … (Na^+)” value is given as −1.2.

With `O=C([O-])CN1CCOCCOCCOCCOc2cc(-c3c4cc(F)c(=O)cc-4oc4cc(O)c(F)cc34)ccc21.[K+]` [Compound 127], the “Response … (Na^+)” value in assay [1] (setting [8]) is reported as 3.6. In addition, in assay [1] (setting [9]), the pKd was 1.70.
